Earlier results, collected in patent US20070134273A1, “Composition and method for the treatment of carcinoma” (priority 2004, published 2007).
Like-named read-outs stand apart in the source and are kept apart here.

Legend:
[1] = tested on: peripheral blood mononuclear cells, monocytes, and dendritic cells; conditions: in vitro and in vivo, versus imiquimod (Aldara R-837)
[2] = tested on: bladder cancer
[3] = transurethral resection plus intravesical agent versus transurethral resection alone

## CCOCc1nc2c(N)nc3ccccc3c2n1CC(C)(C)O [Resiquimod, 4-amino-2-ethoxymethyl-α, α-dimethyl-1H-imidazo[4,5-c]quinoline-1-ethanol]
[1]
  potency in inducing cytokines relative to imiquimod: about 100 times

## COc1cccc2c1C(=O)c1c(O)c3c(c(O)c1C2=O)C[C@@](O)(C(=O)CO)C[C@@H]3O[C@H]1C[C@H](N)[C@H](O)[C@H](C)O1 [doxorubicin]
[2]; [3]
  studies with a significant reduction in tumor progression: 0 of 2
  studies with a significant reduction in tumor recurrences: 2 of 4

## CO[C@@]12[C@H](COC(N)=O)C3=C(C(=O)C(C)=C(N)C3=O)N1C[C@@H]1N[C@@H]12 [mitomycin]
[2]; [3]
  studies with a significant reduction in tumor progression: 0 of 2
  studies with a significant reduction in tumor recurrences: 2 of 5

## S=P(N1CC1)(N1CC1)N1CC1 [thiotepa]
[2]; in vivo
  studies with a significant reduction in tumor progression: 0 of 3
  studies with a significant reduction in tumor recurrences: 6 of 10
